Target: T1, GL3 (luciferase derived from a known firefly) (Photinus pyralis, UniProt P08659, K549A/L550V/N119G/N50D/S548I)
T1 construct: measured as purified protein in a similar manner to SP1
Experiment: Km of GL3 luciferase (luminescence kinetic analysis)
Type: biochemical
Conditions: read-out: Km for ATP; 0.1 M Tris-HCl (pH 8.0), D-luciferin, MgSO4; measured in a similar manner

T1 sequence (P08659 whole entry N50D/N119G/S548I/K549A/L550V): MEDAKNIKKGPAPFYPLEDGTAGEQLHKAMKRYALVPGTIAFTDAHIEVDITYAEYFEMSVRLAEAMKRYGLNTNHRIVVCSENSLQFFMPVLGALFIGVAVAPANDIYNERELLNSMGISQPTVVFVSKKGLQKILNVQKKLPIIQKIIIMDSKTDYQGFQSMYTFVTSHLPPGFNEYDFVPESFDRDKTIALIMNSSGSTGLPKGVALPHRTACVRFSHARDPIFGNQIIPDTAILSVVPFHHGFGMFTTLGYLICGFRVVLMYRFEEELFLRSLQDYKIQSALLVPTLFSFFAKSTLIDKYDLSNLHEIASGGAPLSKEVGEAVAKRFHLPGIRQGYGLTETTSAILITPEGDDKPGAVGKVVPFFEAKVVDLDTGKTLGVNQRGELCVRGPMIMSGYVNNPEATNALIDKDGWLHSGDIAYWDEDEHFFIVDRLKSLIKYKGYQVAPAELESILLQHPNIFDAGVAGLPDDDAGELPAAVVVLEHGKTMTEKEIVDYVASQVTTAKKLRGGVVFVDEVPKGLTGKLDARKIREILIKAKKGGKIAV

In the case of `Nc1ncnc2c1ncn2[C@@H]1O[C@H](COP(=O)(O)OP(=O)(O)OP(=O)(O)O)[C@@H](O)[C@H]1O` [ATP], the Km is reported as 71.3 µM.
